How the values were obtained:
[1] = CNT-FET control, pristine CNT FET and empty nanodisc functionalized CNT FET (Example 2)
Method: In order to carry out the electrical measurements the devices were set up with the PDMS well and source, drain and gate electrodes, via micromanipulators and a Rucker and Kolls probe station, as shown in FIG. 9. Before starting the electrical measurements, 100 μl of PBS buffer (containing 1% DMSO) was added into the testing well. The gate electrode is an Ag/AgCl wire (In Vivo Metric) sheathed in plastic where the exposed area at the end of Ag/AgCl was completely inserted into the PBS buffer to avoid any electrical artefacts that are known to occur when changing the active area of the gate electrode. An Agilent 4156C parameter analyser is used for all electrical measurements^20. The parameter analyser has excellent sensitivity and can accurately measure currents on the femto-amp scale.
During transfer (Vlg−Ids) measurements the gate voltage (Vlg) is swept between −500 mV to +1 V and the source drain voltage (Vds) is set as fixed values (50 mV, 100 mV or 200 mV). For our real time sensing measurement the Vlg is set to 0 and Vds is set as fixed values (50 mV, 100 mV or 200 mV, with a time step of 1 s.
The E-2-hexenal ligand solution is diluted from our 100 mM stock solution, to the concentration ranges required for the sensing experiments. […]

Or10a = biological target: T1, Or10a (Drosophila melanogaster, UniProt Q9VYZ1); assay: EIS sensor, Or10a liposomes on gold electrode (Example 1); format: binding; conditions: Or10a liposomes, EIS
T1 sequence (Q9VYZ1 1-406): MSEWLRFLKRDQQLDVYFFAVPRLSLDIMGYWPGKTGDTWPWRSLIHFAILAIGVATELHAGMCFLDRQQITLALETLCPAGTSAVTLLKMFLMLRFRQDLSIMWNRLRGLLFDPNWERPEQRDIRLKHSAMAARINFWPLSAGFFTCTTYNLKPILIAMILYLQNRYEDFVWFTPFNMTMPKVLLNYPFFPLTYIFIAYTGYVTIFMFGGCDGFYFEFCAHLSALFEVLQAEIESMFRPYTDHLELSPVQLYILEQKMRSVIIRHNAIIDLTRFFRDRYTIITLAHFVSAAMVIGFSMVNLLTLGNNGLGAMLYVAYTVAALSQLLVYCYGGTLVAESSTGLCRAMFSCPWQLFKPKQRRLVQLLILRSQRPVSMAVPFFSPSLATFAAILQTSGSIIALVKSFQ
Method: Liposomes were prepared using a phospholipid solution produced by evaporating solutions containing: phosphatidylethanolamine (PE), phosphatidylserine (PS), phosphatidylcholine (PC), and cholesterol (CH) at a molar ratio of 5:3:3:1 in a small glass tube under a stream of N2 gas, then desiccating under vacuum for 1 h. […] To promote the formation of liposomes, 10 freeze/thaw steps were performed by transferring the tube from liquid nitrogen to a 40° C. water bath. Liposomes were then sized by passing the lipid solution 11 times through a 100-nm polycarbonate membrane using an Avestin LiposoFAST extruder unit (Avestin, Germany). Glycerol was added at 10% of the final volume and aliquots at 10 mg/mL were snap frozen in liquid nitrogen and stored at -80° C. Prior to their use, liposomes were defrosted on ice and then destabilized by incubating with 0.2% CHAPS for 15 min at room temperature. Then 200 μg of purified odorant receptor^14 was added to 1 mg of liposomes and rotated at 10 rpm for 1 h at room temperature. […] The Bio-Beads were removed after each incubation period. The OR integrated liposomes were pelleted by centrifugation at 100,000 g for 1 h, and were resuspended in 500 μL of rehydration buffer. Integration of OrXs into liposomes was assessed by density gradient ultracentrifugation (DGU) using Accudenz (Accurate Chemical & Scientific Corporation, USA). […] The sample was then centrifuged at 100,000 g for 4 h at 4° C. Liposomes will float to the top of the gradient after Accudenz DGU due to their low density. 1.3 Electrode Cleaning Gold disk (2 mm) electrodes were cleaned with polishing with Alumina paste for 2 minutes, ultra-sonicated in pure ethanol and then Milli-Q water for 5 minutes each. […] Charge transfer resistance (Rct) of electrodes were calculated by fitting obtained data to a Randles' equivalent circuit [Rs+CPE/(Rct+W)] comprising of a solution resistance (Rs) in series with a constant phase element (CPE) and in parallel with charge transfer resistance (Rct) and Warburg diffusion element. […]

| SMILES | real time current response [1] | EC50 (Or10a) [nM] | Sensitivity limit (lowest detectable concentration) (Or10a; signal/noise >3) [pM] |
| --- | --- | --- | --- |
| CCC/C=C/C=O [E2-hexenal] | no clear current response | – | – |
| COC(=O)c1ccccc1O [methyl salicylate] | – | ~1 | 330 |
